Here are results for 16 compounds from patent publication US20180148470A1, “CHOLIC ACID DERIVATIVE, AND PREPARATION METHOD AND MEDICAL USE THEREOF” (Jiangsu Hansoh Pharmaceutical Group Co., Ltd., priority 2015, published 2018).

Each structure is given as a SMILES string.

One assay deals with T1, FXR receptor (Homo sapiens, UniProt Q96RI1).
T1 construct: Prepared 2× GST-labeled FXR-LBD/anti-GST Eu mixture to the required volume, the concentration of GST-FXR-LBD was 6 nM; purchased Life Technology Invitrogen PV4835
T1 sequence (Q96RI1 262-486 limits assumed): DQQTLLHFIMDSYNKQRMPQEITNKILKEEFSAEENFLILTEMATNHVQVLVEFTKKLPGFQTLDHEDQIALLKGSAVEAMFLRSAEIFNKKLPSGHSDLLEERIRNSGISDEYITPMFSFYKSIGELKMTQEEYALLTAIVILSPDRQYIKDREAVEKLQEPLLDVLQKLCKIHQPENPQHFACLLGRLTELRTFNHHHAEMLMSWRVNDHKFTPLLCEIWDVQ
T1 sequence (Q15788 676-700 partner limits assumed): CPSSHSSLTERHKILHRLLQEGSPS
In words: FXR receptor binding activity assay (TR-FRET; GST-FXR-LBD / SRC1 fragment). The note with it: FXR-LBD binding to SRC1 fragment, agonist rate. The format is biochemical. From the text: FXR Receptor Binding Activity Assay (Time-Resolved Fluorescence Detection Method TR-FRET Method)
To test the effect of the present compounds on FXR receptor binding, we selected the commercial FXR receptor binding activity assay kit to test the effect of the compounds on FXR and its binding protein fragments (LBD structural domain binds to SRC1 fragment) (kit supplier: Life Technology Invitrogen Catalog: PV4835; cisbio Catalog: 610SAXLA and 61GSTKLA). Specific method was described in the kit instructions. The operation was as follows:
1. Prepared 2× GST-labeled FXR-LBD/anti-GST Eu mixture to the required volume, the concentration of GST-FXR-LBD was 6 nM, Eu was 50 nL/well.
2. Prepared 2× biotin-labeled SRC1/[…] (SA-APC) mixture to the required volume, the concentration of SRC1 was 1000 nM, and […] was 50 nL/well.
3. 2× GST-FXR/Eu and SRC1/SA-APC were mixed in a proportion of 1:1.
4. 20 μL of a mixture of GST-FXR/Eu and SRC1/SA-APC was added to a 384-well plate containing the compounds to be tested.
5. Centrifuged for 1 minute at 1000 rpm; incubated for 180 minutes at room temperature.
6. Time-resolved fluorescence detection: EnVision reader.
(1) the value at 665 nm divided by the value at 615 nm;
(2) calculating the agonist rate
Agonist rate=(X−Min)/(Max−Min)*100% • X represents the 665/615 value for each concentration; • Min represents the 665/615 value without adding compound; • Max represents the 665/615 value of the reference compound.
(TR-FRET usually uses a lanthanide donor and a delayed reading to cut background.)

For a further assay, the target named is T2, FXR (Homo sapiens, UniProt Q96RI1).
T2 sequence (Q96RI1 262-486 limits assumed): T1 sequence (Q96RI1 262-486 limits assumed)
In words: FXR reporter gene expression test (dual luciferase, FXR Gal4 reporter in HepG2 cells). It counts as cell-based. The note with it: HepG2 cells transiently transfected with FXR Gal4 reporter, 18 hours. An excerpt:
FXR Reporter Gene Expression Test
To analyze the effect of testing compounds on FXR-regulated gene expression, we used Promega's dual luciferase assay system (Promega #E1980) to detect the effect of the compounds on the FXR reporter gene in HepG2 hepatoma cell line (ATCC #HB-8065), which was transiently transfected with the FXR Gal4 reporter gene fragment. Specific experimental methods are as follows:
1. HepG2 Cell Culture and Maintenance
Cells were digested and cells with appropriate density were grown in 10 mL complete medium and then cultivated for 24 hours under 37° C., 5% CO2 humidity conditions.
2. Cell planting and transfection. Transfection reagent was Fugene HD (Promega#E231A)
(1) The transfection mixture was prepared according to the following table
(2) The mixture in the tube was vigorously mixed and incubated at room temperature for 15 minutes;
(3) The cells were digested in the culture dish and counted;
(4) The cell suspension was diluted to the desired volume of 600,000/mL (96-well plates 100 μL/well);
(5) The required volume of the transfection mixture was added to the cell suspension, followed by plating at 100 μL/well;
(6) Incubated for 24 hours under 37° C., 5% CO2 humidity conditions.
3. Treatment of the Compound
(1) 10 mM of mother liquor of the compound was prepared and then serially diluted 3 times with DMSO;
(2) 10 μL of compound was added to 90 μL of complete medium (10×);
(3) 5 μL of the solution of the compound (21×) was added to each well;
(4) Incubated for 18 hours under 37° C., 5% CO2 humidity conditions.
The firefly luciferase and the renilla luciferase signal (Promega #E1980) were detected by Promega's dual-luciferase assay system.
(2) Calculating the agonist rate
Agonist rate=(X−Min)/(Max−Min)*100% • X represents the F/R value of each concentration; • Min represents the F/R value without adding compound; • Max represents the F/R value of the reference compound.
(3) EC50 was calculated according to GraphPrism 5.0
A general note: A reporter such as luciferase makes a cellular process visible.

Consider `CC[C@H]1[C@@H](O)C2C3CCC([C@H](C)CC4SC(=O)NC4=O)[C@@]3(C)CCC2[C@@]2(C)CC[C@@H](O)C[C@@H]12` (single isomer, unassigned) [Example 14-α], for which the EC50 stood at 0.013 µM at FXR receptor and 0.063 µM on FXR.

`CC[C@@H]1[C@@H]2[C@@H](F)[C@H](O)CC[C@]2(C)C2CC[C@@]3(C)C(CCC3[C@H](C)CCC(=O)O)C2[C@@H]1O` (stereo partly drawn) [Example 1, (4R)-4-((3R, 4R, 5S, 6R, 7R, 10R, 13R)-6-ethyl-4-fluoro-3,7-dihydroxy-10,13-dimethylhexadecahydro-1H-cyclopenta[a]phenanthrene-17-yl)pentanoic acid]: the results for the EC50 at FXR receptor and on FXR were 0.214 µM and 2.6 µM, respectively. On to `CC[C@H]1[C@@H](O)C2C3CCC([C@H](C)CCC(=O)NO)[C@@]3(C)CCC2[C@@]2(C)CC[C@@H](O)C[C@@H]12` (stereo partly drawn) [Example 2, (4R)-4-((3R,5S,6R,7R,10S,13R)-6-ethyl-3,7-dihydroxy-10,13-dimethylhexadecahydro-1H-cyclopenta[a]phenanthrene-17-yl)-N-hydroxypentanamide], for which the figures for the EC50 at FXR receptor and at FXR were 0.167 µM and 3.39 µM, respectively. For `CC[C@H]1[C@@H](O)C2C3CCC([C@H](C)CCC(=O)NC#N)[C@@]3(C)CCC2[C@@]2(C)CC[C@@H](O)C[C@@H]12` (stereo partly drawn) [Example 3, (4R)-N-cyano-4-((3R, 5S, 6R, 7R, 10S, 13R)-6-ethyl-3,7-dihydroxy-10,13-dimethylhexadecahydro-1H-cyclopenta[a]phenanthrene-17-yl)pentanamide], the EC50 at FXR receptor was found to be 0.016 µM; at FXR it was 2.53 µM. As to `CC[C@H]1[C@@H](O)C2C3CCC([C@H](C)CCC(=O)NOC)[C@@]3(C)CCC2[C@@]2(C)CC[C@@H](O)C[C@@H]12` (stereo partly drawn) [Example 4, (4R)-4-((3R,5S,6R,7R,10S,13R)-6-ethyl-3,7-dihydroxy-10,13-dimethylhexadecahydro-1H-cyclopenta[a]phenanthrene-17-yl)-N-methoxypentanamide], the EC50 is 0.054 µM on FXR receptor and 1.06 µM at FXR. `CC[C@H]1[C@@H](O)C2C3CCC([C@H](C)CCC(=O)NCS(=O)(=O)O)[C@@]3(C)CCC2[C@@]2(C)CC[C@@H](O)C[C@@H]12` (stereo partly drawn) [Example 5, ((4R)-4-((3R,5S,6R,7R,10S,13R)-6-ethyl-3,7-dihydroxy-10,13-dimethylhexadecahydro-1H-cyclopenta[a]phenanthrene-17-yl)pentanoylamino) methanesulfonic acid] yielded an EC50 at FXR receptor of 0.031 µM. On to `CC[C@H]1[C@@H](O)C2C3CCC([C@H](C)CCC(=O)NCP(=O)(O)O)[C@@]3(C)CCC2[C@@]2(C)CC[C@@H](O)C[C@@H]12` (stereo partly drawn) [Example 6, (((4R)-4-((3R,5S,6R,7R,10S,13R)-6-ethyl-3,7-dihydroxy-10,13-dimethylhexadecahydro-1H-cyclopenta[a]phenanthrene-17-yl)pentanoylamino)methyl)phosphonic acid], for which the half-maximal effective concentration (EC50) at FXR receptor was 1.27 µM. Against the preceding compound, the EC50 is about 41-fold higher. `CC[C@H]1[C@@H](O)C2C3CCC([C@H](C)CCC(=O)NCCP(=O)(O)O)[C@@]3(C)CCC2[C@@]2(C)CC[C@@H](O)C[C@@H]12` (stereo partly drawn) [Example 7, (2-((4R)-4-((3R,5 S,6R,7R,10S,13R)-6-ethyl-3,7-dihydroxy-10,13-dimethylhexadecahydro-1H-cyclopenta[a]phenanthrene-17-yl)pentanoylamino)ethyl) phosphonic acid] yielded a half-maximal effective concentration (EC50) on FXR receptor of 0.552 µM. Regarding `CC[C@H]1[C@@H](O)C2C3CCC([C@H](C)CCC(=O)NOCCO)[C@@]3(C)CCC2[C@@]2(C)CC[C@@H](O)C[C@@H]12` (stereo partly drawn) [Example 8, (4R)-4-((3R, 5S, 6R, 7R, 10S, 13R)-6-ethyl-3,7-dihydroxy-10,13-dimethylhexadecahydro-1H-cyclopenta[a]phenanthrene-17-yl)-N-(2-hydroxyethoxy)pentanamide], the EC50 was found to be 0.228 µM on FXR receptor and 3.37 µM on FXR. Consider `CC[C@H]1[C@@H](O)C2C3CCC([C@H](C)CCc4n[nH]c(=O)o4)[C@@]3(C)CCC2[C@@]2(C)CC[C@@H](O)C[C@@H]12` (stereo partly drawn) [Example 10, 5-((3R)-3-((3R,5S,6R,7R,10S,13R)-6-ethyl-3,7-dihydroxy-10,13-dimethylhexadecane-1H-cyclopenta[a]phenanthrene-17-yl)butyl)-1,3,4-oxadiazol-2 (3H) -one], for which the EC50 at FXR receptor came out at 0.061 µM; at FXR it was 1.4 µM. On to `CC[C@H]1[C@@H](O)C2C3CCC([C@H](C)CCc4nnc[nH]4)[C@@]3(C)CCC2[C@@]2(C)CC[C@@H](O)C[C@@H]12` (stereo partly drawn) [Example 11, (3R,5S,6R,7R,10S,13R)-17-((R)-4-(4H-1,2,4-triazol-3-yl)butan-2-yl)-6-ethyl-10,13-dimethylhexadecahydro-1H-cyclopenta[a] phenanthrene-3,7-diphenol], for which the EC50 at FXR receptor was determined as 0.366 µM; on FXR, 5.2 µM. On to `CC[C@H]1[C@@H](O)C2C3CCC([C@H](C)CCc4noc(=O)[nH]4)[C@@]3(C)CCC2[C@@]2(C)CC[C@@H](O)C[C@@H]12` (stereo partly drawn) [Example 12, 3-((3R)-3-((3R, 5S, 6R, 7R, 10S, 13R)-6-ethyl-3,7-dihydroxy-10,13-dimethylhexadecahydro-1H-cyclopenta[a]phenanthrene-17-yl)butyl)-1,2,4-oxadiazol-5(4H)-one], for which the results for the EC50 on FXR receptor and at FXR were 0.052 µM and 1.36 µM, respectively. For the compound `CC[C@H]1[C@@H](O)C2C3CCC([C@H](C)CCc4nnc(C(=O)O)o4)[C@@]3(C)CCC2[C@@]2(C)CC[C@@H](O)C[C@@H]12` (stereo partly drawn) [Example 13, 5-((3R)-3-((3R, 5S, 6R, 7R, 10S,13R)-6-ethyl-3,7-dihydroxy-10,13-dimethylhexadecahydro-1H-cyclopenta[a]phenanthrene-17-yl)butyl) -1,3,4-oxadiazole-2-carboxylic acid], the results for the half-maximal effective concentration (EC50) at FXR receptor and on FXR were 0.283 µM and 5.2 µM, respectively. As to `CCOC(=O)c1nnc(CC[C@@H](C)C2CCC3C4C(CC[C@@]32C)[C@@]2(C)CC[C@@H](O)C[C@H]2[C@@H](CC)[C@H]4O)o1` (stereo partly drawn) [Example 13-ii], at FXR receptor, the EC50 worked out at 0.07 µM. In the case of `C[C@H](CC1SC(=O)NC1=O)C1CCC2C3C(CC[C@@]21C)[C@@]1(C)CC[C@@H](O)C[C@H]1C[C@H]3O` (stereo partly drawn) [Example 15-α, 5-((2R)-2-((3R,5 S,7R,10S,13R)-3,7-dihydroxy-10,13-dimethylhexadecahydro-1H-cyclopenta[a]phenanthrene-17-yl)propyl)thiazolidine-2,4-dione], on FXR receptor, the EC50 was found to be 0.143 µM. On to `C[C@H](CC1SC(=O)NC1=O)C1CCC2C3C(CC[C@@]21C)[C@@]1(C)CC[C@@H](O)C[C@H]1C[C@H]3O` (stereo partly drawn) [Example 15-β, 5-((2R)-2-((3R,5 S,7R,10S,13R)-3,7-dihydroxy-10,13-dimethylhexadecahydro-1H-cyclopenta[a]phenanthrene-17-yl)propyl)thiazolidine-2,4-dione], for which the concentration for a half-maximal effect (EC50) at FXR receptor came to 0.312 µM; on FXR, 3.37 µM.

Usually EC50 stands for the concentration giving half of the maximal effect. Higher therefore signals a less potent agent.
